Like-named read-outs stand apart in the source and are kept apart here.

The test system of data set [1] is house dust mite Dermatophagoides pteronyssinus. Description: House dust mite immersion test, mortality. Format: in vivo. From the text: The utility of the vicinal diols is further illustrated by the results of experiments against the house dust mite Dermatophagoides pteronyssinus according to accepted industry protocols. Mites were sealed in a cotton envelope and briefly immersed (5 seconds) in dilute solutions (2.5%) of selected diols. The mites were examined one hour after immersion and mortality calculated. The results are shown in Table 3 below with comparative results for a proprietary carpet shampoo, permethrin insecticide and water (as controls).

A further data set deals with house flies. Format: in vivo, Musca domestica. From the text:
A further example of the use of the compounds of the present invention is shown by testing decane-1,2-diol against house flies in a standard industry protocol for insecticides.

Data set [2] relates to human body louse (Pediculus humanus). Put plainly: LC50 tests against the human body louse. Particulars: for Potency index: LC50 value compared with that of 1,2-decanediol (=100%); for LC50: read-out: LC50 value; for LC50 / LC50 value: tests against lice (Pediculus humanus).
Data set [3] has as its system lice. Put plainly: Immersion of lice in test formulations, mortality. The following applies: immersed for a few seconds and blotted dry. Format: in vivo. The source says:
(§1) Vicinal diols are readily formulated in aqueous systems using non-toxic co-solvents such as isopropyl alcohol or by use of surfactants such as Tween®. This makes them eminently suitable for inclusion into many household or industrial, pesticidal or cleansing products. In particular they can be incorporated into pharmaceutical preparations for use on humans or animals. The treatment of lice and cockroaches with formulations containing 1,2-octanediol or 1,2-decanediol is tabulated in Table 4 along with control results for the solvent systems employed. In a procedure following standard industry protocols the subject animals were immersed for a few seconds in the test formulations and blotted dry. Mortality after 24 hrs was measured for the lice, after 1 hr for the cockroaches.

In the next data set the test system is cockroaches. Put plainly: Immersion of cockroaches in test formulations, mortality. Format: in vivo. The following applies: immersed for a few seconds and blotted dry.
Excerpt: as §1

Data set [4] concerns lice. Description: Egg-laying activity of treated lice. In kind it is in vivo. Particulars: FIG. 2. The source says:
FIG. 2 is a further graph illustrating a relationship between diol chain length and egg-laying activity of treated lice.

Data set [5] concerns human body louse (Pediculus humanus). The following applies: in vivo.

For the compound `CCCCCCCCC(O)CO` (racemic) [1,2-Decanediol], the figures for the Mortality (in data set [1] (in vivo); in the data set on house flies (in vivo)) were 95% and “More than 80%”, respectively. For the same compound, the Potency index in data set [2] is recorded as 100%. In addition, in data set [2] (against lice), the “pediculicidal activity (in words)” value was “significantly superior to 1,3-decanediol”. The median lethal concentration (LC50) (in general, the concentration that kills 50% of the test population) in data set [2] was 12 mM.
In data set [1] (mites in cotton envelope immersed 5 seconds, diols as 2.5% solutions, examined one hour after immersion), `CC1(C)C(C=C(Cl)Cl)C1C(=O)OCc1cccc(Oc2ccccc2)c1` (stereo not drawn) [0.25% Permethrin, Permethrin] had a Mortality of 100%. In the data set with lice [3], the “Lice mortality after 24 hr” value is recorded as 100%. Further, the “Cockroach mortality after 1 hr” value in the data set on cockroaches is 100%.
For `CCCC(O)C(O)CO` (stereo not drawn) [1,2,3-Hexanetriol], in data set [2], the Potency index result is given as “Not effective” and the LC50 value result is reported as “Not calculable”.
For `OCCCCC(O)CO` (stereo not drawn) [1,2,6-Hexanetriol] the same measures were “Not effective” and “Not calculable”.
Taken in the same sequence, the figures for `CCC(O)CO` (stereo not drawn) [1,2-Butanediol] were “Not effective” and more than 700 mmol.
As to `CCCCC(O)CO` (stereo not drawn) [1,2-Hexanediol], in data set [2], the Potency index came to 6% and the LC50 value is more than 200 mmol.
`CCCCCCC(O)CO` (stereo not drawn) [1,2-Octanediol] displayed a Mortality in data set [1] (in vivo) of 65%. For the same compound, in the data set with lice [4], the “prevention of egg laying (in words)” value was “especially efficacious in the prevention of egg laying”. Besides, in data set [2], the Potency index is 30% and the LC50 stood at 40 mM.
As for `CC(O)CCO` (stereo not drawn) [1,3-Butanediol], in data set [2], the Potency index entry is recorded as “Not effective” and the LC50 value is more than 2000 mmol.
In the case of `CCCCCCCC(O)CCO` (stereo not drawn) [1,3-Decanediol], in data set [2], the Potency index was 30% and the LC50 was 40 mM.
Take `CCCCCC(O)CCO` (stereo not drawn) [1,3-Octanediol]: in data set [2], the Potency index entry is reported as “Not effective” and the LC50 value is more than 400 mmol.
Take `CC(O)CCCCO` (stereo not drawn) [1,5-Hexanediol]: in data set [2], the Potency index entry was “Not effective” and the LC50 value entry was “Not calculable”.
In the case of `OCCCCCCO` [1,6-Hexanediol], in data set [5], the LC50 value result is reported as “Not calculable”. The Potency index entry in data set [2] is on record as “Not effective”.
For `CCCCCCCCCCO` [1-Decanol], in data set [2], the Potency index came out at 32% and the LC50 is 35 mM.
`CC(O)CCC(C)O` (stereo not drawn) [2,5-Hexanediol]: in data set [2], the Potency index entry is recorded as “Not effective” and the LC50 value result is recorded as “Not calculable”.
Consider `CCCCCCCCC(C)O` (stereo not drawn) [2-Decanol], for which, in data set [2], the Potency index is 34% and the LC50 was determined as 37 mM.
`CCCC(O)C(CC)CO` (stereo not drawn) [2-Ethyl-1,3-hexanediol] had an LC50 in data set [5] of 60 mM. Further, in data set [2], the Potency index is given as 20%.
In data set [5], `CCCCC(CC)CO` (stereo not drawn) [2-Ethyl-1-hexanol] displayed an LC50 value of 300 mmol. In addition, the Potency index in data set [2] turned out to be 4%.
As to `CCCCCCCC(CC)C(O)CO` (stereo not drawn) [3-Ethyl-1,2-decanediol], in data set [2], the Potency index entry was “Not effective” and the LC50 value result is listed as “Not calculable”.
Turning to `CCCCCCCC(CC)CCO` (stereo not drawn) [3-Ethyl-1-decanol], in data set [2], the Potency index was 20% and the LC50 stood at 62 mM.
For the compound `CCCCCCCCC(CCCCCCC)C(O)CO` (stereo not drawn) [3-Octyl-1,2-decanediol], in data set [2], the Potency index is listed as 12% and the LC50 came to 97 mM.
As to `CCCCCCC(O)CCC` (stereo not drawn) [4-Decanol], in data set [2], the Potency index is 6% and the LC50 value came to 183 mmol.
With `C=CCCCCCCCCO` [9-Decene-1-ol], in data set [2], the Potency index stood at 36% and the LC50 worked out at 33 mM.
`OCCCCCCCCCCO` [decane-1,10-diol]: the “insecticidal activity (in words)” value in the data set on house flies (house flies) was “did not exhibit insecticidal activity”.

The values above are taken from US9456601B2, “Pesticides based on vicinal diols” (priority 2001, dated 2016).
